Laboratory results reported in US20170349879A1, “METHOD FOR CULTURING NORMAL CELLS AND ODONTOMA CELLS CONTAINED IN ORAL TISSUE” (CHIBA UNIVERSITY, priority 2014, published 2017).

Legend:
Format in all cases: cell-based, human
amylase = assay: Expression analysis of amylase by quantitative RT-PCR in salivary gland cells; conditions: salivary gland cells repeatedly subcultured in Rock inhibitor-containing medium; relative to GAPDH; FIG. 2
Description: Salivary gland cells were cultured in the presence or absence of a Rock inhibitor and provided for quantitative RT-PCR assay with a LightCycler 480 (Roche) to analyze amylase expression in these salivary gland cells. The primers used for amylase are as shown below, and the universal probe used was #18. The primers used for glyceraldehyde-3-phosphate dehydrogenase (GAPDH) serving as an endogenous control are as shown below, and the universal probe used was #60. The PCR reaction was conducted in accordance with standard protocols by using a mixture (final reaction volume: 20 μl) containing 10 μl of Probe master (Roche), 0.2 μl of each probe master and the primers. The reaction conditions were set to initial denaturation at 95° C. for 5 minutes and 50 amplification cycles of denaturation at 95° C. for 10 seconds, annealing at 60° C. for 30 seconds and elongation reaction at 60° C. for 60 seconds. The mRNA level of the desired gene was expressed as a relative value to the expression level of GAPDH used as a control.

fibroblasts = assay: Cell culture of fibroblasts using a Rho kinase inhibitor (cell morphology); conditions: inhibitor-containing medium (10 μM); passage 7 with inhibitor vs passage 2 without; FIG. 13
Description: (§1) Odontoma cells, oral mucosal epithelial cells, fibroblasts, and cancer-associated fibroblasts (CAFs) (i) Patient-derived cells for use as a source material were taken in a required amount as described above. (ii) The cells were washed three times with phosphate-buffered physiological saline (PBS) (supplemented with 10 units/ml of penicillin and 100 μg/ml of streptomycin: Sigma-Aldrich). (iii) The cells were cut into small pieces with sterilized iris scissors and a surgical knife (No. 11). (iv) After addition of trypsin (TrypLE Select Enzyme, Gibco, Code No. A12177-01), the cells were shaken at 37° C. for 30 minutes. (v) The cells were mixed with Dulbecco's modified Eagle medium (DMEM: Sigma-Aldrich) (supplemented with 10% fetal bovine serum: Nichirei Bioscience Inc., Japan, 10 units/ml of penicillin and 100 μg/ml of streptomycin), and centrifugation (at 1000 rpm for 5 minutes) was repeated three times. (vi) The cells were mixed with DMEM (supplemented with 10% fetal bovine serum, 10 units/ml of penicillin, 100 μg/ml of streptomycin, 10 μM of the Rock kinase inhibitor and 0.3 μM of L-ascorbic acid 2-phosphate: Sigma-Aldrich) (DMEM+) and then seeded into collagen type I-coated cell culture dishes (IWAKI). (vii) The cells were washed with PBS once every three days to replace the above medium. (viii) The cultured cells were subcultured at 80% confluency. […]

[1] = tested on: oral mucosal epithelial cells; assay: Cell culture of oral mucosal epithelial cells using a Rho kinase inhibitor (cell morphology); conditions: inhibitor-containing medium (10 μM); passage 5 with inhibitor vs passage 0 without; FIG. 12
Description: as §1

[2] = tested on: telomerase reverse transcriptase (TERT); assay: Quantitative RT-PCR of TERT (immortalization) in salivary gland cells; conditions: salivary gland cells in Rock inhibitor-containing medium; FIG. 6B
Description: Primary cultured salivary gland cells were cultured in a medium containing a Rock inhibitor and analyzed for their proliferation by Western blotting of proliferating cell nuclear antigen (PCNA: Santa Cruz) and for their apoptosis by Western blotting of caspase-3 (CST). For analysis of their immortalization, the expression of telomerase reverse transcriptase (TERT) was analyzed by quantitative RT-PCR assay. Quantitative RT-PCR of TERT was conducted in the same manner as shown in (2.1) above. The primers used are as shown below. The universal probe used was #19.

[3] = tested on: cancer-associated fibroblasts (CAFs); assay: Cell culture of cancer-associated fibroblasts using a Rho kinase inhibitor (cell morphology); conditions: inhibitor-containing medium (10 μM); passage 7 with inhibitor vs passage 1 without; FIG. 14
Description: as §1

In the case of CC(N)[C@H]1CC[C@H](C(=O)Nc2ccncc2)CC1 (stereo partly drawn) [Rock inhibitor, (R)-(+)-trans-N-(4-pyridyl)-4-(1-aminoethyl)-cyclohexanecarboxamide], the “mRNA expression of amylase” value (amylase) is reported as “significantly high”, the “cell morphology of fibroblasts on repeated subculture” value (fibroblasts) is reported as “maintain their cell morphology even when repeatedly subcultured” and the “cell morphology of oral mucosal epithelial cells on repeated subculture” value [1] is reported as “maintain their cell morphology even when repeatedly subcultured”. The TERT expression [2] was “no difference was also observed” and the “cell morphology of cancer-associated fibroblasts on repeated subculture” value [3] was “maintain their cell morphology even when repeatedly subcultured”.
